Assay results reported in patent publication US12636287B2, “Organic compounds” (INTRA-CELLULAR THERAPIES, INC., priority 2018, dated 2026).

Columns and labels:
[1] = test system: U251MG GBM cell line; assay: Sensitivity of GBM cell line to Compounds 1 and 2 (ID50); format: cell-based; settings: Homo sapiens, U-251
[2] = test system: GBM cells; assay: Proliferation and survival of GBM cells over 8 days; format: cell-based, human; settings: for change in GBM cell population by day 8 / rate of proliferation in comparison with untreated samples: 10 μM and 20 μM; for change in GBM cell population by day 8: UWLV301, UWLV304, IN1951, U251MG and IN2045; for rate of proliferation in comparison with untreated samples: recorded daily for 8 days, all cell lines; for slowing or eliminating the proliferation of the GBM cell lines: summary statement
Experimental: Further studies were carried out to test the effect of Compounds 1 and 2 on proliferation and survival of the GBM cells. […] Results on the change in cell population were observed and recorded daily for 8 days.

[3] = test system: UWLV304 GBM cell line; assay: Sensitivity of GBM cell line to Compounds 1 and 2 (ID50); format: cell-based; settings: Homo sapiens
[4] = target: T1, bovine retina PDE6 (Bos taurus, UniProt P11541+P23439); assay: Inhibitory constant against PDEs; format: biochemical
T1 construct: bovine retina PDE6; from tissue; host or cells: bovine retina
T1 sequence (P11541 2-856 limits assumed): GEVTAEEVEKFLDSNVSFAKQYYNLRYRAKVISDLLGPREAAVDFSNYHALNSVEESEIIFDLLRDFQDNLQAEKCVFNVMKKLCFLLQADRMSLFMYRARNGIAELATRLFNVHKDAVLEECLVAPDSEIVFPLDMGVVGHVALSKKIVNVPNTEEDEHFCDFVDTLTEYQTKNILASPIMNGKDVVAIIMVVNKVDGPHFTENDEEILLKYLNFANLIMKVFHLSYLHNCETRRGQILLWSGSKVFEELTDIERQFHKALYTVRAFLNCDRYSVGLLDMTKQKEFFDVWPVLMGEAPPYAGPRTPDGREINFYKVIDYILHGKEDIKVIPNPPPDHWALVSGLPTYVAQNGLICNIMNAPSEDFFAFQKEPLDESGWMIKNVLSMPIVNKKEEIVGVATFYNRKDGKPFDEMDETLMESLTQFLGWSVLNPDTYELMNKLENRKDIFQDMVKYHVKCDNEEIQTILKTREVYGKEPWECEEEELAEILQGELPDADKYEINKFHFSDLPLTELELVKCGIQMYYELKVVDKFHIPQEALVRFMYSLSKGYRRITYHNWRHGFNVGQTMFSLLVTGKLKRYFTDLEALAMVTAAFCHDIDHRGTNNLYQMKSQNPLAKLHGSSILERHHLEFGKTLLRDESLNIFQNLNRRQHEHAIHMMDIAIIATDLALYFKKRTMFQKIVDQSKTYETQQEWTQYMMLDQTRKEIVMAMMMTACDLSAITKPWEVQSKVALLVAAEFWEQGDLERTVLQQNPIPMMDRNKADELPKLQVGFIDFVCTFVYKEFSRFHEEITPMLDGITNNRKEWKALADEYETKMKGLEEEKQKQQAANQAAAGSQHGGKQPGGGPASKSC
T1 sequence (P23439 2-850 limits assumed): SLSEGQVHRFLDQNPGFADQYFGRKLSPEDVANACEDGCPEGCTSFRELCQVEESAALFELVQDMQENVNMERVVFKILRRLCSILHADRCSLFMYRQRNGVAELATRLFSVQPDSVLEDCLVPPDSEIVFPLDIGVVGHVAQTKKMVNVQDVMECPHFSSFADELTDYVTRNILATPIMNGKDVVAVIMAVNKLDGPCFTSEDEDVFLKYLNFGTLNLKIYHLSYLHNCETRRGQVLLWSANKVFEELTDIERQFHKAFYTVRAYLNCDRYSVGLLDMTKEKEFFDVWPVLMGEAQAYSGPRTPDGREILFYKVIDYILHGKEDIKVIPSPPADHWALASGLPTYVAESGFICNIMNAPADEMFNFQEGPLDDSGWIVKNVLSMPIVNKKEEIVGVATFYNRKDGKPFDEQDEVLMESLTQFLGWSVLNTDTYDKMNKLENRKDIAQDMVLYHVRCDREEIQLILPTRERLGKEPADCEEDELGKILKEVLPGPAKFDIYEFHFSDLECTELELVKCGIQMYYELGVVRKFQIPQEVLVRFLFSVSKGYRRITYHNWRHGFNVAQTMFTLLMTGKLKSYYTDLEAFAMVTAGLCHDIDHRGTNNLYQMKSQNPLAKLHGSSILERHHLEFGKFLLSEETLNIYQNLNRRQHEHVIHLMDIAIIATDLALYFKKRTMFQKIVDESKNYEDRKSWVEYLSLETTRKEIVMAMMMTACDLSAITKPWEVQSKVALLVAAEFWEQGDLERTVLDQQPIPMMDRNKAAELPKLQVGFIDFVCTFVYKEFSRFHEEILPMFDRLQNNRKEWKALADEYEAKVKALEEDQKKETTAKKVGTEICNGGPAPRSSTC

[5] = test system: IN1528 GBM cell line; assay: Sensitivity of GBM cell line to Compounds 1 and 2 (ID50); format: cell-based; settings: Homo sapiens
[6] = test system: IN1951 GBM cell line; assay: as above; format: cell-based; settings: Homo sapiens
[7] = test system: UWLV301 GBM cell line; assay: as above; format: cell-based; settings: Homo sapiens
[8] = test system: IN2045 GBM cell line; assay: as above; format: cell-based; settings: Homo sapiens
[9] = target: T2, PDE1 (bovine brain); format: biochemical
T2 construct: Ki; other: PDE1 (bovine brain)

[10] = test system: IN859 GBM cell line; assay: Sensitivity of GBM cell line to Compounds 1 and 2 (ID50); format: cell-based; settings: Homo sapiens

| SMILES | IC50 [1] | change in GBM cell population by day 8 [2] | rate of proliferation in comparison with untreated samples [2] | slowing or eliminating the proliferation of the GBM cell lines [2] | IC50 [3] | Ki [4] | IC50 [5] | IC50 [6] | IC50 [7] | IC50 [8] | Ki [9] | IC50 [10] |
| --- | --- | --- | --- | --- | --- | --- | --- | --- | --- | --- | --- | --- |
| CN1C(=O)c2c(nn(Cc3ccc(-c4cccc(F)n4)cc3)c2Nc2ccccc2)N2C1=N[C@@H]1CCC[C@@H]12 [Compound 1] | 17.8 µM | overall decrease | proliferated at a slower rate | highly effective | 6.4 µM | 0.32 µM | 26.5 µM | 2.04 µM | 5.4 µM | 18.4 µM | 0.058 nM | 34.9 µM |
| CC(=O)c1ccc(Cn2nc3c(c2Nc2ccc(F)cc2)C(=O)N(C)C2=NC(C)(C)CN23)cc1 [Compound 2] | 32 µM | overall decrease | proliferated at a slower rate | highly effective | 2.87 µM | – | 9.45 µM | 1.03 µM | 4.73 µM | 12 µM | – | 9.77 µM |
